Where a name gives a salt, the structure may show the parent alone. Read-outs that look alike come from different tables or passages of the source.
System: Mycobacterium tuberculosis H37Rv
Test: Mycobacterium tuberculosis H37Rv inhibition assay (resazurin MIC)
Assay type: cell-based
Conditions: ATCC 25618 / H37Rv, read-out: MIC value
[1] = 144 h, H37Rv strain (ATCC25618), Middlebrook 7H9, 37° C., six days, resazurin fluorescence after 48 hours
[2] = H37Rv strain (ATCC25618), Middlebrook 7H9, 37° C., six days, resazurin fluorescence after 48 hours

SMILES: N#Cc1cc(CNC2CCN(C[C@]3(O)Cn4c(=O)ccc5ncc(F)c3c54)CC2)cc2c1OCC2 [Example 41, 5-{[(1-{[(4S)-3-fluoro-4-hydroxy-7-oxo-4,5-dihydro-7H-pyrrolo[3,2,1-de]-1,5-naphthyridin-4-yl]methyl}-4-piperidinyl)amino]methyl}-2,3-dihydro-1-benzofuran-7-carbonitrile]
- MIC [1]: ≤ 4 µg/mL
- MIC [2]: ≤ 1.7 µg/mL

SMILES: O=C1CSc2ccc(CNC3CCN(CC4(O)Cn5c(=O)ccc6ncc(Cl)c4c65)CC3)nc2N1 (racemic) [Example 14, (4R/S)-3-Chloro-4-hydroxy-4-[(4-{[(3-oxo-3,4-dihydro-2H-pyrido[3,2-b][1,4]thiazin-6-yl)methyl]amino}-1-piperidinyl)methyl]-4,5-dihydro-7H-pyrrolo[3,2,1-de]-1,5-naphthyridin-7-one Dihydrochloride]
- MIC [1]: ≤ 4 µg/mL
- MIC: ≤ 1.7 µg/mL

SMILES: O=c1ccc2ncc(F)c3c2n1C[C@@]3(O)CN1CCC(NCc2ccc3nonc3c2)CC1 [Example 48, (4S)-4-({4-[(2,1,3-benzoxadiazol-5-ylmethyl)amino]-1-piperidinyl}methyl)-3-fluoro-4-hydroxy-4,5-dihydro-7H-pyrrolo[3,2,1-de]-1,5-naphthyridin-7-one]
- MIC [1]: ≤ 4 µg/mL
- MIC [2]: ≤ 1.7 µg/mL

SMILES: O=c1ccc2ncc(F)c3c2n1C[C@@]3(O)CN1CCC(NCc2cc3c(nn2)SCCO3)CC1 [Example 19, (4S)-4-({4-[(6,7-Dihydro[1,4]oxathiino[3,2-c]pyridazin-3-ylmethyl)amino]-1-piperidinyl}methyl)-3-fluoro-4-hydroxy-4,5-dihydro-7H-pyrrolo[3,2,1-de]-1,5-naphthyridin-7-one (E1 Enantiomer Series) Dihydrochloride]
- MIC [1]: ≤ 4 µg/mL
- MIC [2]: ≤ 1.7 µg/mL

SMILES: O=C1CSc2ccc(CNC3CCN(C[C@]4(O)Cn5c(=O)ccc6ncc(F)c4c65)CC3)nc2N1 [Example 6, (4S)-3-Fluoro-4-hydroxy-4-[(4-{[(3-oxo-3,4-dihydro-2H-pyrido[3,2-b][1,4]thiazin-6-yl)methyl]amino}-1-piperidinyl)methyl]-4,5-dihydro-7H-pyrrolo[3,2,1-de]-1,5-naphthyridin-7-one (E1 Enantiomer Series) Dihydrochloride]
- MIC [1]: ≤ 4 µg/mL
- MIC [2]: ≤ 1.7 µg/mL

SMILES: O=c1ccc2ncc(F)c3c2n1C[C@@]3(O)CN1CCC(NCc2cc3c(cn2)OCCO3)CC1 [Example 1, (4S)-4-({4-[(2,3-Dihydro[1,4]dioxino[2,3-c]pyridin-7-ylmethyl)amino]-1-piperidinyl}methyl)-3-fluoro-4-hydroxy-4,5-dihydro-7H-pyrrolo[3,2,1-de]-1,5-naphthyridin-7-one (E1 Enantiomer Series) Hydrochloride]
- MIC [1]: ≤ 4 µg/mL

SMILES: O=C1COc2cc(Cl)c(CNC3CCN(C[C@]4(O)Cn5c(=O)ccc6ncc(F)c4c65)CC3)nc2N1 [Example 40, (4S)-4-[(4-{[(7-chloro-3-oxo-3,4-dihydro-2H-pyrido[3,2-b][1,4]oxazin-6-yl)methyl]amino}-1-piperidinyl)methyl]-3-fluoro-4-hydroxy-4,5-dihydro-7H-pyrrolo[3,2,1-de]-1,5-naphthyridin-7-one]
- MIC [1]: ≤ 4 µg/mL
- MIC [2]: ≤ 1.7 µg/mL

SMILES: O=c1ccc2ncc(F)c3c2n1C[C@@]3(O)CN1CCC(NCc2ccc3c(c2)OCCO3)CC1 [Example 3A, (4S)-4-({4-[(2,3-Dihydro-1,4-benzodioxin-6-ylmethyl)amino]-1-piperidinyl}methyl)-3-fluoro-4-hydroxy-4,5-dihydro-7H-pyrrolo[3,2,1-de]-1,5-naphthyridin-7-one (E1 Enantiomer Series) Dihydrochloride]
- MIC [1]: ≤ 4 µg/mL
- MIC [2]: ≤ 1.7 µg/mL

SMILES: O=c1ccc2ncc(F)c3c2n1C[C@@]3(O)CN1CCC(NCc2ccc3snnc3c2)CC1 [Example 46, (4S)-4-({4-[(1,2,3-benzothiadiazol-5-ylmethyl)amino]-1-piperidinyl}methyl)-3-fluoro-4-hydroxy-4,5-dihydro-7H-pyrrolo[3,2,1-de]-1,5-naphthyridin-7-one]
- MIC [1]: ≤ 4 µg/mL
- MIC [2]: ≤ 1.7 µg/mL

SMILES: O=c1ccc2ncc(F)c3c2n1C[C@@]3(O)CN1CCC(NCc2cc3c(cn2)OCS3)CC1 [Example 10B, (4S)-3-Fluoro-4-hydroxy-4-({4-[([1,3]oxathiolo[5,4-c]pyridin-6-ylmethyl)amino]-1-piperidinyl}methyl)-4,5-dihydro-7H-pyrrolo[3,2,1-de]-1,5-naphthyridin-7-one (E1 enantiomer series) hydrochloride]
- MIC [1]: ≤ 4 µg/mL
- MIC [2]: ≤ 1.7 µg/mL

SMILES: O=c1ccc2ncc(F)c3c2n1C[C@@]3(O)CN1CCC(NCc2cnc3snnc3c2)CC1 [Example 56, (4S)-3-fluoro-4-hydroxy-4-({4-[([1,2,3]thiadiazolo[5,4-b]pyridin-6-ylmethyl)amino]-1-piperidinyl}methyl)-4,5-dihydro-7H-pyrrolo[3,2,1-de]-1,5-naphthyridin-7-one]
- MIC [1]: ≤ 4 µg/mL
- MIC [2]: ≤ 1.7 µg/mL

SMILES: O=c1ccc2ncc(F)c3c2n1C[C@@]3(O)CN1CCC(NCc2cc3c(cn2)OCCS3)CC1 [Example 8A, (4S)-4-({4-[(2,3-Dihydro[1,4]oxathiino[2,3-c]pyridin-7-ylmethyl)amino]-1-piperidinyl}methyl)-3-fluoro-4-hydroxy-4,5-dihydro-7H-pyrrolo[3,2,1-de]-1,5-naphthyridin-7-one (E1 Enantiomer Series) Dihydrochloride]
- MIC [1]: ≤ 4 µg/mL
- MIC [2]: ≤ 1.7 µg/mL

SMILES: O=c1ccc2ncc(Cl)c3c2n1CC3(O)CN1CCC(NCc2cc3c(cn2)OCS3)CC1 (racemic) [Example 15, (4R/S)-3-Chloro-4-hydroxy-4-({4-[([1,3]oxathiolo[5,4-c]pyridin-6-ylmethyl)amino]-1-piperidinyl}methyl)-4,5-dihydro-7H-pyrrolo[3,2,1-de]-1,5-naphthyridin-7-one Dihydrochloride]
- MIC [1]: ≤ 4 µg/mL

SMILES: O=c1ccc2ncc(F)c3c2n1CC3(F)CN1CCC(NCc2cc3c(cn2)OCCO3)CC1 (stereo not drawn) [Example 26B, 4-({4-[(2,3-Dihydro[1,4]dioxino[2,3-c]pyridin-7-ylmethyl)amino]-1-piperidinyl}methyl)-3,4-difluoro-4,5-dihydro-7H-pyrrolo[3,2,1-de]-1,5-naphthyridin-7-one Dihydrochloride(E1 Enantiomer)]
- MIC (144 h): ≤ 4 µg/mL

SMILES: O=c1ccc2ncc(F)c3c2n1C[C@@]3(O)CN1CCC(NCc2cc3ccccc3cn2)CC1 [Example 36, (4S)-3-fluoro-4-hydroxy-4-({4-[(3-isoquinolinylmethyl)amino]-1-piperidinyl}methyl)-4,5-dihydro-7H-pyrrolo[3,2,1-de]-1,5-naphthyridin-7-one]
- MIC [1]: ≤ 4 µg/mL

SMILES: O=c1ccc2ncc(F)c3c2n1C[C@@]3(O)CN1CCC(NCc2ccc3cccc(O)c3n2)CC1 [Example 49, (4S)-3-fluoro-4-hydroxy-4-[(4-{[(8-hydroxy-2-quinolinyl)methyl]amino}-1-piperidinyl)methyl]-4,5-dihydro-7H-pyrrolo[3,2,1-de]-1,5-naphthyridin-7-one]
- MIC [1]: ≤ 4 µg/mL

SMILES: O=c1ccc2ncc(F)c3c2n1C[C@@]3(O)CN1CCC(NCc2cnc3ccccc3c2)CC1 [Example 37, (4S)-3-fluoro-4-hydroxy-4-({4-[(3-quinolinylmethyl)amino]-1-piperidinyl}methyl)-4,5-dihydro-7H-pyrrolo[3,2,1-de]-1,5-naphthyridin-7-one]
- MIC [1]: ≤ 4 µg/mL
- MIC [2]: ≤ 1.7 µg/mL

SMILES: O=c1c(F)cc2ncc(F)c3c2n1C[C@@]3(O)CN1CCC(NCc2cc3c(cn2)OCCO3)CC1 [Example 20A, (4S)-4-({4-[(2,3-Dihydro[1,4]dioxino[2,3-c]pyridin-7-ylmethyl)amino]-1-piperidinyl}methyl)-3,8-difluoro-4-hydroxy-4,5-dihydro-7H-pyrrolo[3,2,1-de]-1,5-naphthyridin-7-one (E1 enantiomer series)]
- MIC [1]: ≤ 4 µg/mL

SMILES: O=c1ccc2ncc(F)c3c2n1C[C@@]3(O)CN1CCC(NCc2ccc3ccccc3n2)CC1 [Example 51, (4S)-3-fluoro-4-hydroxy-4-({4-[(2-quinolinylmethyl)amino]-1-piperidinyl}methyl)-4,5-dihydro-7H-pyrrolo[3,2,1-de]-1,5-naphthyridin-7-one]
- MIC [1]: ≤ 4 µg/mL

SMILES: O=c1ccc2ncc(F)c3c2n1C[C@@]3(O)CN1CCC(NCc2cc3cc(F)cc(F)c3[nH]2)CC1 [Example 54, (4S)-4-[(4-{[(5,7-difluoro-1H-indol-2-yl)methyl]amino}-1-piperidinyl)methyl]-3-fluoro-4-hydroxy-4,5-dihydro-7H-pyrrolo[3,2,1-de]-1,5-naphthyridin-7-one]
- MIC [1]: ≤ 4 µg/mL
- MIC [2]: ≤ 1.7 µg/mL

SMILES: O=C1COc2ccc(CNC3CCN(CC4(F)Cn5c(=O)ccc6ncc(F)c4c65)CC3)nc2N1 (stereo not drawn) [Example 32, 3,4-Difluoro-4-[(4-{[(3-oxo-3,4-dihydro-2H-pyrido[3,2-b][1,4]oxazin-6-yl)methyl]amino}-1-piperidinyl)methyl]-4,5-dihydro-7H-pyrrolo[3,2,1-de]-1,5-naphthyridin-7-one Dihydrochloride (E1 Enantiomer)]
- MIC (144 h): ≤ 4 µg/mL
- MIC: ≤ 1.7 µg/mL

SMILES: O=c1ccc2ncc(F)c3c2n1C[C@@]3(O)CN1CCC(NCc2ccc3nnsc3c2)CC1 [Example 53, (4S)-4-({4-[(1,2,3-benzothiadiazol-6-ylmethyl)amino]-1-piperidinyl}methyl)-3-fluoro-4-hydroxy-4,5-dihydro-7H-pyrrolo[3,2,1-de]-1,5-naphthyridin-7-one]
- MIC [1]: ≤ 4 µg/mL
- MIC [2]: ≤ 1.7 µg/mL

SMILES: O=c1ccc2ncc(F)c3c2n1C[C@@]3(O)CN1CCC(NCc2ccc3nsnc3c2)CC1 [Example 35, (4S)-4-({4-[(2,1,3-benzothiadiazol-5-ylmethyl)amino]-1-piperidinyl}methyl)-3-fluoro-4-hydroxy-4,5-dihydro-7H-pyrrolo[3,2,1-de]-1,5-naphthyridin-7-one]
- MIC [1]: ≤ 4 µg/mL
- MIC [2]: ≤ 1.7 µg/mL

SMILES: O=c1ccc2ncc(Cl)c3c2n1CC3(O)CN1CCC(NCc2cc3c(cn2)OCCC3)CC1 (racemic) [Example 13, (4R/S)-3-Chloro-4-({4-[(3,4-dihydro-2H-pyrano[2,3-c]pyridin-6-ylmethyl)amino]-1-piperidinyl}methyl)-4-hydroxy-4,5-dihydro-7H-pyrrolo[3,2,1-de]-1,5-naphthyridin-7-one Dihydrochloride]
- MIC [1]: ≤ 4 µg/mL

Reference: patent US20100184751A1, “HETEROCYCLIC COMPOUNDS FOR THE TREATMENT OF TUBERCULOSIS” (priority 2007, published 2010)
